Where two headings read alike, the source gives them in different places.
Assays:
[1] = test system: MDA-MB-453 cells, which harbor an activating FGFR4 mutation; assay: Cellular potency: phosphorylation of Erk in MDA-MB-453 cells (immunoblot); conditions: Homo sapiens, MDA-MB-453, 1 h, read-out: Potency (pErk IC50)
Method: Dose response in MDA-MB-453 cells, which harbor an activating FGFR4 mutation, was measured as follows. Briefly, MDA-MB-453 cells were seeded at 2.5×10^6 cells/6 well, and starved overnight. Compounds were added at varying concentrations (3000, 1000, 300, 100, and 30 nM) for 1 hour. Samples were collected and lysed for immunoblot analysis. The phosphorylation of Erk was measured and the average pErk value of three replicates was plotted with three parameter dose-response (inhibition) curve fit using Prism GraphPad software, which was used to determine the IC50 values.

wild type FGFR-1 = wild type FGFR-1 (Homo sapiens (Human), UniProt P11362); assay: FGFR-1 wild type assay at Km (Caliper electrophoretic mobility shift); assay type: biochemical; conditions: 400 uM ATP, 90 minutes, 25 C; read-out: FGFR1 IC50
Sequence of wild type FGFR-1 (P11362 22-822): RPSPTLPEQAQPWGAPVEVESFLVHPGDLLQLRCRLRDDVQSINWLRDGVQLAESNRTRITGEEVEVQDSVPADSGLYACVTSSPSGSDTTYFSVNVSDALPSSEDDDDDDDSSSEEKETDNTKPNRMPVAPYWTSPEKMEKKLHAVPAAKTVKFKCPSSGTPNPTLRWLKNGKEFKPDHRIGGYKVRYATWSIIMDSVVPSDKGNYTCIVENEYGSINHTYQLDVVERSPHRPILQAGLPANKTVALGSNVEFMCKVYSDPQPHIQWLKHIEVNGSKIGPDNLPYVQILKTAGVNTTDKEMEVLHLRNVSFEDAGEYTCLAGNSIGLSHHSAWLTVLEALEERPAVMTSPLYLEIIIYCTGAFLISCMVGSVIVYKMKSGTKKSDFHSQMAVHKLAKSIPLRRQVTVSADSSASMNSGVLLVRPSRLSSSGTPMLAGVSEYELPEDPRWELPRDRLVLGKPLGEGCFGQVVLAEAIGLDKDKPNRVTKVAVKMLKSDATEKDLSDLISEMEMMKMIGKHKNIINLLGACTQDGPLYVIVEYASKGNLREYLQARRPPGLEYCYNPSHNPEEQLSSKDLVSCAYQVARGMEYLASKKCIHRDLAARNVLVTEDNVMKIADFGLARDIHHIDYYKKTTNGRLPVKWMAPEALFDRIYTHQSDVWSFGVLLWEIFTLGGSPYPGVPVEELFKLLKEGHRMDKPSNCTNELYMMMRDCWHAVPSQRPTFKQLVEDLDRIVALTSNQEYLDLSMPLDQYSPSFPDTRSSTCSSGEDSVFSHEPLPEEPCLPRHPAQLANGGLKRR
Method: (§1) In order to assess the activity of chemical compounds against the relevant kinase of interest, the Caliper LifeSciences electrophoretic mobility shift technology platform is utilized. Fluorescently labeled substrate peptide is incubated in the presence dosed levels of compounds, a set concentration of kinase and of ATP, so that a reflective proportion of the peptide is phosphorylated. At the end of the reaction, the mix of phosphorylated (product) and non-phosphorylated (substrate) peptides are passed through the microfluidic system of the Caliper LabChip® EZ Reader II, under an applied potential difference. The presence of the phosphate group on the product peptide provides a difference in mass and charge between the product peptide and the substrate peptide, resulting in a separation of the substrate and product pools in the sample. As the pools pass the LEDS within the instrument, these pools are detected and resolved as separate peaks. The ratio between these peaks therefore reflects the activity of the chemical matter at that concentration in that well, under those conditions.
(§2) The reaction was stopped by the addition of 70 ul of Stop buffer (100 mM HEPES pH 7.5, 0.015% Brij 35, 35 mM EDTA and 0.2% of Coating Reagent 3 (Caliper Lifesciences)). The plate was then read on a Caliper EZReader 2 (protocol settings: −1.9 psi, upstream voltage −700, downstream voltage −3000, post sample sip 35 s).

wild type FGFR-4 = wild type FGFR-4 (Homo sapiens (Human), UniProt P22455); assay: FGFR-4 wild type assay at Km (Caliper electrophoretic mobility shift); assay type: biochemical; conditions: for IC50: read-out: FGFR4 IC50; for Ratio FGFR1/FGFR4: [IC50 for FGFR1]/[IC50 for FGFR4]
Sequence of wild type FGFR-4 (P22455 22-802): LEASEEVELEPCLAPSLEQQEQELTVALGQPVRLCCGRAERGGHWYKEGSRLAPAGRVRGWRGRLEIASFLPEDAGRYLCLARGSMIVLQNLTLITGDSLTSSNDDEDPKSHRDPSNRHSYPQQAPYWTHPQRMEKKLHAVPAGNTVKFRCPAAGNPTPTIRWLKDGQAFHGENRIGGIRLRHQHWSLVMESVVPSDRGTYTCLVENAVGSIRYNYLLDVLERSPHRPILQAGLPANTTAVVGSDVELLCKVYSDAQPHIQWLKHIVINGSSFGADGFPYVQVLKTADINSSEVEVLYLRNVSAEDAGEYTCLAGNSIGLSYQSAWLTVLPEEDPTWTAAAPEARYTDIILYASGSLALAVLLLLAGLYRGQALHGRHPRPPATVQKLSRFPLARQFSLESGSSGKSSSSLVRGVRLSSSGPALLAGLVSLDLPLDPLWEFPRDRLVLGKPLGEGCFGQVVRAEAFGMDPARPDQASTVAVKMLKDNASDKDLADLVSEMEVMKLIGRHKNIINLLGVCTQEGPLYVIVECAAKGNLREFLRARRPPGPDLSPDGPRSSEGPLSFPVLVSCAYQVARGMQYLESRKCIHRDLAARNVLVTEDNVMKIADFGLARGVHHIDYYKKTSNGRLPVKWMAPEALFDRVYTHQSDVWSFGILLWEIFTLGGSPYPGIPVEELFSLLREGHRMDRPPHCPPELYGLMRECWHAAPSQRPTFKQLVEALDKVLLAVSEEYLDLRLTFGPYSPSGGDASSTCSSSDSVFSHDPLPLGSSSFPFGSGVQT
Method: as §1
as §2, with “LabChip® EZ Reader II” for “EZReader 2”

Row | IC50 [1] [nM] | IC50 (wild type FGFR-1) [nM] | IC50 (wild type FGFR-4; 400 uM ATP, 90 minutes, 25 C) [nM] | Ratio FGFR1/FGFR4 (wild type FGFR-4) | SMILES | IC50 (wild type FGFR-4) [nM]
1 | 1 to 10 | – | < 10 | A (the ratio is >500) | C=CC(=O)Nc1cccc(C)c1Nc1ncc2cc(-c3c(Cl)c(OC)cc(OC)c3Cl)cnc2n1 [COMPOUND 26, N-(2-((6-(2,6-dichloro-3,5-dimethoxyphenyl)pyrido[2,3-d]pyrimidin-2-yl)amino)-3-methylphenyl)acrylamide] | –
2 | < 1 | – | < 10 | B (the ratio is ≥200 and <500) | C=CC(=O)Nc1ccccc1Nc1cc2c(cn1)cc(-c1c(Cl)c(OC)cc(OC)c1Cl)c(=O)n2C [COMPOUND 31] | –
3 | < 1 | > 1000 | < 10 | E (the ratio is >10 and <50) | C=CC(=O)Nc1cccc(C)c1Nc1cc2c(cn1)cc(-c1c(Cl)c(OC)cc(OC)c1Cl)c(=O)n2C [COMPOUND 39] | –
4 | < 1 | – | – | – | C=CC(=O)Nc1cccc(C)c1Nc1ncc2cc(-c3c(Cl)c(OC)cc(OC)c3Cl)c(=O)n(C)c2n1 [COMPOUND 43, N-(2-((6-(2,6-dichloro-3,5-dimethoxyphenyl)-8-methyl-7-oxo-7,8-dihydropyrido[2,3-d]pyrimidin-2-yl)amino)-3-methylphenyl)acrylamide] | –
5 | – | > 1000 | – | E (the ratio is >10 and <50) | C=CC(=O)Nc1ccccc1Nc1cc2nc(NC(=O)NC(C)(C)C)c(-c3cc(OC)cc(OC)c3)cc2cn1 [COMPOUND 44] | –
6 | < 1 | > 1000 | < 10 | E (the ratio is >10 and <50) | C=CC(=O)Nc1cccc(C)c1Nc1ncc2nc(-c3c(Cl)c(OC)cc(OC)c3Cl)c(=O)n(C)c2n1 [COMPOUND 45, N-(2-((6-(2,6-dichloro-3,5-dimethoxyphenyl)-8-methyl-7-oxo-7,8-dihydropteridin-2-yl)amino)-3-methylphenyl)acrylamide] | –
7 | < 1 | – | < 10 | E (the ratio is >10 and <50) | C=CC(=O)Nc1cccc(F)c1Nc1cc2c(cn1)cc(-c1c(Cl)c(OC)cc(OC)c1Cl)c(=O)n2C [COMPOUND 46] | –
8 | – | > 1000 | – | A (the ratio is >500) | C=CC(=O)Nc1cc(Cl)cc(C)c1Nc1ncc2cc(-c3c(Cl)c(OC)cc(OC)c3Cl)ccc2n1 [COMPOUND 49] | –
9 | 1 to 10 | – | < 10 | C (the ratio is ≥100 and <200) | C=CC(=O)Nc1cc(N2CCOCC2)cc(C)c1Nc1ncc2cc(-c3c(Cl)c(OC)cc(OC)c3Cl)ccc2n1 [COMPOUND 53] | –

Row | SMILES | IC50 [1] [nM] | IC50 (wild type FGFR-1) [nM] | IC50 (wild type FGFR-4; 400 uM ATP, 90 minutes, 25 C) [nM] | Ratio FGFR1/FGFR4 (wild type FGFR-4) | IC50 (wild type FGFR-4) [nM]
10 | C=CC(=O)Nc1cccc(C)c1Nc1cc2c(cn1)cc(-c1cc(OC)cc(OC)c1)c(=O)n2C [COMPOUND 18] | 10 to 100 | > 1000 | – | – | –
11 | C#CC(=O)NCc1cccn2c(-c3cc(NC(=O)NCC(F)(F)F)cc(OC(C)C)c3)cnc12 [COMPOUND 20, N-((3-(3-isopropoxy-5-(3-(2,2,2-trifluoroethyl)ureido)phenyl)imidazo[1,2-a]pyridin-8-yl)methyl)propiolamide] | > 100 | > 1000 | – | – | –
12 | C=CC(=O)Nc1ccc(F)c(C)c1Nc1ncc2cc(-c3c(Cl)c(OC)cc(OC)c3Cl)ccc2n1 [COMPOUND 33] | 1 to 10 | > 1000 | – | F (the ratio of [IC50 for FGFR1]/[IC50 for FGFR4] is less than 10) | –
13 | C=CC(=O)Nc1cccc(C)c1Nc1ncc2cc(-c3c(Cl)c(OC)cc(OC)c3Cl)cc(F)c2n1 [COMPOUND 34, N-(2-((6-(2,6-dichloro-3,5-dimethoxyphenyl)-8-fluoroquinazolin-2-yl)amino)-3-methylphenyl)acrylamide] | 1 to 10 | – | – | – | < 10
14 | C=CC(=O)Nc1ccccc1-c1ccn2c(-c3cc(NC(=O)NCC(F)(F)F)cc(OC(C)C)c3)cnc2c1 [COMPOUND 38, N-(2-(3-(3-isopropoxy-5-(3-(2,2,2-trifluoroethyl)ureido)phenyl)imidazo[1,2-a]pyridin-7-yl)phenyl)acrylamide] | 10 to 100 | – | – | E (the ratio is >10 and <50) | –
15 | C=CC(=O)Nc1cccc(F)c1Nc1ncc2cc(-c3c(Cl)c(OC)cc(OC)c3Cl)ccc2n1 [COMPOUND 51] | – | > 1000 | 10 to 100 | F (the ratio of [IC50 for FGFR1]/[IC50 for FGFR4] is less than 10) | –

Source: patent US10196436B2, “Inhibitors of the fibroblast growth factor receptor” (BLUEPRINT MEDICINES CORPORATION, priority 2012, dated 2019)
